These results are taken from ChEMBL document CHEMBL1129103, “Synthesis and antiviral activity of 2-deoxy-1,5-anhydro-D-mannitol nucleosides containing a pyrimidine base moiety” (1996).

Structures are written as SMILES. Converted amounts (≈) assume the structure as drawn. Some results are limits rather than exact numbers.

What all share (assay type): functional
The test system of one test is Cytomegalovirus. Put plainly: Compound was tested for antiherpes activity against Cytomegalovirus virus(AD 169) in HEL cells. To be noted: Human betaherpesvirus 5.
The subject of another test is Human alphaherpesvirus 1. The test can be described thus: Compound was tested for antiherpes activity against Herpes simplex virus-1(KOS) in E6SM cell cultures.
Another test deals with Human alphaherpesvirus 2. Put plainly: Compound was tested for antiherpes activity against Herpes simplex virus-2(G) in E6SM cell cultures.
The test system of a further test is Human alphaherpesvirus 3. The test can be described thus: Compound was tested for antiherpes activity against Varicella zoster virus(OKA) in HEL cells.

Take `Nc1nc2c(ncn2COC(CO)CO)c(=O)[nH]1` [GANCICLOVIR]: the figures for the MIC against Cytomegalovirus, in the test with Human alphaherpesvirus 1 and against Human alphaherpesvirus 2 were 1 µg/mL (≈ 3.92 µM), 0.0007 µg/mL (≈ 0.00274 µM) and 0.002 µg/mL (≈ 0.00784 µM), respectively.

Regarding `O=c1ccn(C2COC(CO)C(O)C2O)c(=O)[nH]1` (stereo not drawn), the MIC with Cytomegalovirus was more than 50 µg/mL; against Human alphaherpesvirus 1, 150 µg/mL (≈ 581 µM); against Human alphaherpesvirus 2, more than 200 µg/mL; in the test on Human alphaherpesvirus 3, more than 50 µg/mL.

Consider `Nc1nc2c(ncn2COCCO)c(=O)[nH]1` [ACYCLOVIR], for which the results for the MIC in the test with Human alphaherpesvirus 1, against Human alphaherpesvirus 2 and in the test with Human alphaherpesvirus 3 were 0.004 µg/mL (≈ 0.0178 µM), 0.004 µg/mL (≈ 0.0178 µM) and 0.5 µg/mL (≈ 2.22 µM), respectively.

For the molecule `Nc1ccn(C2COC(CO)C(O)C2O)c(=O)n1` (stereo not drawn), the MIC against Cytomegalovirus stood at 10 µg/mL (≈ 38.9 µM); against Human alphaherpesvirus 1, 70 µg/mL (≈ 272 µM); against Human alphaherpesvirus 2 it was 70 µg/mL (≈ 272 µM); in the test on Human alphaherpesvirus 3, 10 µg/mL (≈ 38.9 µM).

Regarding `O=c1[nH]c(=O)n(C2COC(CO)C(O)C2O)cc1I` (stereo not drawn), the MIC against Cytomegalovirus was more than 50 µg/mL; against Human alphaherpesvirus 1 it was 7 µg/mL (≈ 18.2 µM); against Human alphaherpesvirus 2, 70 µg/mL (≈ 182 µM); in the test on Human alphaherpesvirus 3, more than 50 µg/mL.
